Data set [1] concerns HepG2 cells. Briefly: Cell cycle analysis by flow cytometry (PI), HepG2. The data set is classed as cell-based, human. The conditions noted are these: 72 h, control 12.79 ± 0.89%. Here is the method: The HepG2 and SMMC-7721 cells were seeded in a 6-well plate (5 × 10^5 cells/well). The cells were photographed using the inverted microscope (Eclipse Ti-S, Nikon Co., Ltd., Japan) to observe the morphological changes. The cells were collected, treated with 70% precooled ethanol (1 mL) in an ice bath, blew and mixed well, and then, fixed overnight at 4°C. The cells were stained with 25 µL PI staining solution and 10 µL RNase staining solution, according to the manufacturer's protocol, and the cell cycle was analyzed by flow cytometry (Attune NxT, Thermo Fisher Scientific Inc., USA).

Data set [2] is described as follows: MTT cell viability assay, HepG2. The note with it: human, HepG2 cells. The data set is classed as cell-based, human. On the procedure: (§1) The cells HepG2, SMMC-7721, and HL-7702 were seeded in 96-well plates containing 6,000 cells per well, supplemented with various concentrations of Sa (0–2,000 μM) and DDP (5 μM). After the cells were incubated at 37°C for 24, 48, and 72 h, they were cultured with 20 µL MTT (5 mg/mL) for 4 h. The formazan crystals were dissolved by adding 150 µL of dimethyl sulfoxide, followed by recording the absorbance at 490 nm using a microplate reader (Varioskan LUX, Thermo Fisher Scientific Inc., USA) and calculating the percentage of cell viability.
On the technique in general: Tetrazolium dyes change colour on reduction, which living cells bring about.

The subject of data set [3] is HepG2 cells. As to the kind of experiment: MTT cell viability assay, HepG2. The note with it: for IC50: Homo sapiens, HepG2, Sa treatment, MTT. The data set is classed as cell-based, human. Here is the method:
as §1

Data set [4] concerns HepG2 cells. As to the kind of experiment: Western blot of apoptosis- and autophagy-related proteins, HepG2. The data set is classed as cell-based, human. Here is the method:
(§2) The HepG2 and SMMC-7721 cells treated with Sa/DDP were collected and using radioimmunoprecipitation assay buffer to lyse the cells at 4°C for 30 min to extract the total protein. The protein concentration of the samples was measured using the BCA protein assay kit, after centrifugation at 12,000 g at 4°C for 5 min, and denatured by boiling at 100°C. An equal amount of protein (30 μg) was resolved using the sodium dodecyl sulfate-polyacrylamide gel (10–12%) electrophoresis for 1.5 h. The proteins were then transferred onto a membrane of nitrocellulose and blocked using 5% skimmed milk for 2 h at 20°C, followed by rinsing thrice using PBS containing 0.1% Tween 20 (PBS-T), for 5 min each. Furthermore, the […] were incubated in diluted anti-Bax, Bcl-2 PARP, c-PARP, a-caspase-3, caspase-3, p62, Beclin-1, Atg5, LC3I/II, and β-actin according to 1 : 1,000, incubated overnight at 4°C, and subsequently washed repeatedly the next day. The membranes were incubated with a secondary antibody (1 : 3000) for 1 h at ambient temperature and washed repeatedly. After washing the membrane, it was developed by the FluorChem M image acquisition system (Protein Simple Inc., USA). The quantification was performed (where appropriate) using the ImageJ software (Rawak Software Inc., Stuttgart, Germany).
(In general: A western blot detects proteins with antibodies after separation by electrophoresis.)

Data set [5] has as its system SMMC-7721 cells. As to the kind of experiment: Western blot of apoptosis- and autophagy-related proteins, SMMC-7721. The format is cell-based, human. Here is the method:
as §2

Data set [6] deals with SMMC-7721 cells. As to the kind of experiment: MTT cell viability assay, SMMC-7721. The data set is classed as cell-based. The note with it: Homo sapiens, SMMC-7721, Sa treatment. On the procedure: (§3) After the cells were incubated at 37°C for 24, 48, and 72 h, they were cultured with 20 µL MTT (5 mg/mL) for 4 h. The formazan crystals were dissolved by adding 150 µL of dimethyl sulfoxide, followed by recording the absorbance at 490 nm using a microplate reader (Varioskan LUX, Thermo Fisher Scientific Inc., USA) and calculating the percentage of cell viability.

The test system of data set [7] is HL-7702 cells. As to the kind of experiment: MTT cell viability assay, normal liver HL-7702. The format is cell-based, human. The conditions noted are these: for IC50: Homo sapiens, L02, HL-7702, Sa treatment, MTT. Here is the method: as §3
For data set [8], the system named is HepG2 cells. As to the kind of experiment: Colony formation assay, HepG2. The format is cell-based, human. The note with it: HepG2, Sa 600 μM, 72 h then 10 d. Here is the method:
(§4) The HepG2 and SMMC-7721 cells were seeded in a 12-well plate (200–300 cells/well). […] Then, the recovery medium was added to the complete medium (1 mL) and cultured for 10 d. Subsequently, these cells were fixed in 4% paraformaldehyde solution (1 mL) at 37°C for 2 h, stained with 0.5% crystal violet staining solution (0.5 mL) for 15 min, and photographed, and the numbers of colonies formed were tabulated. The findings were expressed as a percentage of the number of colonies in each experimental group (assuming that the control group was 100%). The ImageJ software (Rawak Software Inc., Stuttgart, Germany) was used for analyzing the data.

In data set [9] the test system is SMMC-7721 cells. Briefly: Colony formation assay, SMMC-7721. The data set is classed as cell-based, human. The conditions noted are these: SMMC-7721, Sa 600 μM, 72 h then 10 d. On the procedure: as §4
Data set [10] deals with HepG2 cells. Briefly: Transwell migration assay, HepG2. The format is cell-based, human. The conditions noted are these: HepG2, Sa 600 μM, 24 h. Here is the method: (§5) The lower section contained 700 μL of DMEM (including 10% FBS) along with the drug to be loaded. Briefly, 3 × 10^4 cells were added to the upper chamber while the lower chamber was filled with 10% FBS after incubating the cells for 24 h. The cells were cultured at 37°C for 24 h, fixed with a 4% paraformaldehyde solution, and stained with 0.5 mL of crystal violet. Subsequently, the cells in the upper chambers were removed by gently dabbing them with cotton swabs. These cells were photographed, and the invaded cells were observed using an inverted microscope (DM4 B, Leica Inc., Germany). Finally, the stained cells were counted in five randomly chosen fields under the microscope for further analysis.

Data set [11] concerns SMMC-7721 cells. Briefly: Transwell migration assay, SMMC-7721. The note with it: SMMC-7721, Sa 600 μM, 24 h. The format is cell-based, human. Here is the method:
as §5

For data set [12], the system named is HepG2 cells. As to the kind of experiment: Annexin V-FITC/PI apoptosis assay, HepG2. The data set is classed as cell-based, human. The conditions noted are these: HepG2, Sa 600 μM, 72 h; control 13.06 ± 1.04%. On the procedure:
(§6) The HepG2 and SMMC-7721 cells were seeded into a 6-well plate (1 × 10^5 cell/well), and after 72 h, the cells in each group were treated with trypsin and collected. The cells were rinsed twice in PBS, and a concentration of 5 × 10^5 cells/mL was treated with a binding buffer. According to the manufacturer's protocol, the cells were stained with 5 µL PI staining solution and 10 µL Annexin V-FITC staining solution with incubation for 30 min in the dark.

For data set [13], the system named is SMMC-7721 cells. As to the kind of experiment: Annexin V-FITC/PI apoptosis assay, SMMC-7721. The format is cell-based, human. The note with it: SMMC-7721, Sa 600 μM, 72 h; control 3.67 ± 0.34%. Here is the method:
as §6

[14] abbreviates: HepG2, HCQ 40 μM pretreatment 1 h then Sa 600 µM/DDP 5 µM 72 h.
Setting [15] is: HepG2, Sa 600 μM, 72 h, vs control.
Setting [16] is: HepG2, Sa 600 μM, 72 h, western blot.
Where [17] appears, read: SMMC-7721, Sa 600 μM, 72 h, vs control.
Setting [18] is: HepG2, Z-VAD-FMK 20 µM pretreatment 1 h then Sa 600 µM/DDP 5 µM 72 h.

Experimental findings from publication PMC8526204, “Effects of Sinapic Acid Combined with Cisplatin on the Apoptosis and Autophagy of the Hepatoma Cells HepG2 and SMMC-7721” (Evidence-based Complementary and Alternative Medicine : eCAM, 2021) are described below.

Where a name gives a salt, the structure may show the parent alone. Read-outs that look alike come from different tables or passages of the source. Peptide text beside a SMILES is read from it. * marks the point of attachment. Cbz = O=C(OCc1ccccc1)*; CH2F = FC*

Take `N.N.[Cl][Pt][Cl]` [DDP, Cisplatin]: the “percentage of cells in the G2/M phase” value in data set [1] (HepG2, DDP 5 μM) is reported as 15.40 ± 1.23%.
With `CCN(CCO)CCCC(C)Nc1ccnc2cc(Cl)ccc12` (stereo not shown) [HCQ, Hydroxychloroquine sulfate, reference compound], the viability (in general, the share of living cells, or the viability signal relative to a control) at 1 h, 40 μM in data set [2] (HepG2, HCQ 40 μM pretreatment 1 h, no Sa/DDP, untreated 100.00 ± 19.04%) came to 98.3 ± 18.7%. The “reduction of cell viability compared to Sa/DDP” value in data set [3] (setting [14]) was found to be 19.07 ± 4.70%. The “a-caspase-3 protein expression increase compared to Sa/DDP treatment” value was determined as 0.34 times in data set [4] (setting [14]) and 0.73 times in data set [5] (SMMC-7721, HCQ 40 µM pretreatment 1 h then Sa 600 µM/DDP 5 µM 72 h).
For the compound `COc1cc(/C=C/C(=O)O)cc(OC)c1O` [Sa, Sinapic acid], the viability at 72 h, 600 µM in data set [2] (HepG2, Sa 600 µM, 72 h) is 71.3 ± 4.08%. Besides, the IC50 (as a rule, the concentration that gives 50% inhibition) was found to be 1.79 mM in [3] (24 h, read-out: IC50 24 h); 1.38 mM in data set [3] (48 h, read-out: IC50 48 h); 0.793 mM in [3] (72 h, read-out: IC50 72 h); 2.58 mM in data set [6] (24 h, read-out: IC50 24 h); 1.62 mM in data set [6] (48 h, read-out: IC50 48 h); 1.35 mM in [6] (72 h, read-out: IC50 72 h). In addition, the IC50 is 5.06 mM in data set [7] (24 h, read-out: IC50 24 h); 4.43 mM in [7] (48 h, read-out: IC50 48 h); 4.02 mM in data set [7] (72 h, read-out: IC50 72 h). For the same compound, in data set [7] (HL-7702, MTT), the “inhibitory effect on normal liver cells” value is on record as “not pronounced”. Further, the “proliferation activity (colony formation, control = 100%)” value in data set [8] was determined as 71.46 ± 2.23%; in data set [9], 72.90 ± 1.29%. In addition, the “percentage of cells in the G2/M phase” value in [1] (HepG2, Sa 600 μM) is listed as 22.60 ± 2.26%. The “decrease of the migration rate” value in [10] is given as 41.52 ± 8.80%; in data set [11] it was 49.80 ± 5.78%. Also, the apoptosis rate was found to be 36.00 ± 2.52% in [12] and 10.74 ± 0.75% in data set [13]. Also, in [4] (setting [15]), the “Atg5 protein expression increase” value was found to be 2.9 fold. The “Beclin-1 protein expression increase” value in data set [4] (setting [15]) was found to be 4.8 fold. Further, the “p62 protein expression decrease” value in [4] (setting [15]) stood at 2.3 fold. The “cleaved PARP protein increase vs control” value in data set [4] (setting [16]) was found to be 4.3 times. For the same compound, the “cleaved caspase-3 protein increase vs control” value in data set [4] (setting [16]) was found to be 13.6 times. Moreover, in data set [5] (setting [17]), the Atg5 expression increase is on record as 4.7 times. In [5] (setting [17]), this compound showed a Beclin-1 expression increase of 2.5 times. For the same compound, the p62 expression decrease in data set [5] (setting [17]) is on record as 1.7 times.
In the case of `COC(=O)C[C@H](NC(=O)[C@H](C)NC(=O)[C@@H](NC(=O)OCc1ccccc1)C(C)C)C(=O)CF` [Z-VAD-FMK, reference compound] (Cbz-Val-Ala-Asp(OMe)-CH2F), the cell viability (in general, a read-out of living cells in per cent, often relative to untreated cells) in [3] (HepG2, Z-VAD-FMK 20 μM pretreatment 1 h, no Sa/DDP, untreated 100.00 ± 19.04%) was 100.66 ± 12.14%. Further, in data set [4] (setting [18]), the “LC3II protein expression increase compared to group without Z-VAD-FMK” value was found to be 45.30 ± 2.05% and the “caspase protein lysis decrease compared to group without Z-VAD-FMK” value came to 25.22 ± 1.22%.
